# Laboratory results published in PubChem BioAssay AID489003 (NMMLSC, 2010).
# Active and inactive are the calls of the source.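 How the source made its calls: active means compounds whose weighted score, built from EC50 under 10 micromolar and fitted span over a set limit, tops 52; inactive means the rest.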
# Biological target: Broad substrate specificity ATP-binding cassette transporter ABCG2 (Homo sapiens) (UniProt Q9UNQ0)
# Experiment: blockade of ABCG2-mediated dye efflux – Ig-MXP3 cells, JC-1 substrate, flow cytometry, dose response (AID 489003)
# Details: JC-1 efflux
# Chain of Broad substrate specificity ATP-binding cassette transporter ABCG2 (Homo sapiens) (Q9UNQ0 whole entry, looked up): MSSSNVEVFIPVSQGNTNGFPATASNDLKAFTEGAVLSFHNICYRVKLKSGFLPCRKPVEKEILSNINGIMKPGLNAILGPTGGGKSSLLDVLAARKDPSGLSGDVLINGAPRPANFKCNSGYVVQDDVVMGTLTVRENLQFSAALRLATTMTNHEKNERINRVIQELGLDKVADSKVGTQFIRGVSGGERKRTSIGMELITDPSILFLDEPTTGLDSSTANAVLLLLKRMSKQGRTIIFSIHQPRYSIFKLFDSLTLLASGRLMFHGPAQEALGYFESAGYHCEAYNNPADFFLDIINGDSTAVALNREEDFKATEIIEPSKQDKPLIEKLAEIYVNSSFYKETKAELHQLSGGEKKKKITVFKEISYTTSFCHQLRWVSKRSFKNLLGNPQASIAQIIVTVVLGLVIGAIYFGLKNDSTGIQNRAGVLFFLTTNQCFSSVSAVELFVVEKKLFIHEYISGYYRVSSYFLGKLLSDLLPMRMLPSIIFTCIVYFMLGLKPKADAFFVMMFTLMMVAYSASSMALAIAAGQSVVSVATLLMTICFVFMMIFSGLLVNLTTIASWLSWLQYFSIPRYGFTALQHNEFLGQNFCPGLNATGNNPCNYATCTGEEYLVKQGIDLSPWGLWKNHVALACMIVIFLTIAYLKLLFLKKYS
row,Structure (SMILES),EC50
1,Cc1cc(N2CCN(C(=O)c3ccco3)CC2)n2nc(-c3ccccc3)nc2n1,9430 nM
2,CNCCCN(C)c1cc(-c2ccco2)nc2cc(-c3ccccc3)nn12,inactive
3,O=C(c1ccoc1)N1CCN(c2cc(-c3cccc(F)c3)nc3cc(-c4ccccc4)nn23)CC1,2110 nM
4,Cc1ccc(-c2cc3nc(-c4ccco4)cc(N4CCN(C(=O)c5ccoc5)CC4)n3n2)cc1,8180 nM
5,CN(CCN(C)c1cc(-c2ccco2)nc2cc(-c3ccccc3)nn12)C(=O)c1ccoc1,inactive
6,CN(C)c1cc(-c2ccco2)nc2cc(-c3ccccc3)nn12,8870 nM
7,CC(=O)N1CCN(c2cc(-c3ccccc3)nc3cc(-c4ccccc4)nn23)CC1,2360 nM
8,CC(=O)N1CCN(c2cc(-c3ccco3)nc3cc(-c4ccccc4)nn23)CC1,inactive
9,COc1cccc(-c2cc(N3CCN(C(=O)c4ccoc4)CC3)n3nc(-c4ccccc4)cc3n2)c1,3330 nM
10,COc1cccc(-c2cc3nc(C)c(C)c(N4CCN(C(=O)c5ccoc5)CC4)n3n2)c1,3830 nM
11,Cc1nc2cc(-c3ccc(F)cc3)nn2c(N2CCN(C(=O)c3ccco3)CC2)c1C,7640 nM
12,O=C(Nc1ccccc1)C1CCN(c2cc(-c3ccco3)nc3cc(-c4ccccc4)nn23)CC1,6490 nM
13,O=C(c1ccoc1)N1CCN(c2cc(-c3ccco3)nc3cc(-c4cccs4)nn23)CC1,2480 nM
14,Cc1ccc(-c2nc3nc(C)cc(N4CCN(C(=O)c5ccco5)CC4)n3n2)cc1,4170 nM
15,COc1ccccc1-c1cc2nc(-c3ccco3)cc(N3CCN(C(=O)c4ccoc4)CC3)n2n1,4270 nM
16,O=C(c1ccoc1)N1CCN(c2cc(-c3ccc(F)cc3)nc3cc(-c4ccccc4)nn23)CC1,12100 nM
17,O=C(c1ccoc1)N1CCN(c2cc(-c3cccc(F)c3)nc3cc(-c4cccc(Cl)c4)nn23)CC1,2300 nM
18,O=C(c1ccoc1)N1CCN(c2cc(-c3ccco3)nc3cc(-c4cccc(Cl)c4)nn23)CC1,2960 nM
19,CNCCN(C)c1cc(-c2ccco2)nc2cc(-c3ccccc3)nn12,inactive
20,CC(C)(C)c1cc(N2CCN(C(=O)c3ccoc3)CC2)n2nc(-c3ccccc3)cc2n1,inactive
21,Cc1c(-c2ccco2)nc2cc(-c3ccccc3)nn2c1N1CCN(C(=O)c2ccoc2)CC1,2440 nM
22,COc1cccc(-c2cc3nc(-c4cccc(C#N)c4)cc(N4CCN(C(=O)c5ccoc5)CC4)n3n2)c1,2530 nM
23,Cc1coc(C)c1C(=O)N1CCN(c2cc(-c3ccco3)nc3cc(-c4ccccc4)nn23)CC1,3220 nM
24,O=C(C1CCCO1)N1CCN(c2c3c(nc4cc(-c5cccc(F)c5)nn24)CCCC3)CC1 (centres undefined),inactive

row,Structure (SMILES),EC50
1,c1ccc(-c2cc3nc(-c4ccco4)cc(N4CCNCC4)n3n2)cc1,6980 nM
2,O=C(c1ccsc1)N1CCN(c2cc(-c3ccco3)nc3cc(-c4ccccc4)nn23)CC1,2870 nM
3,Cc1cccc(-c2cc3nc(-c4ccco4)cc(N4CCN(C(=O)c5ccoc5)CC4)n3n2)c1,9090 nM
4,CC1CN(C(=O)c2ccoc2)CCN1c1cc(-c2ccco2)nc2cc(-c3ccccc3)nn12 (centres undefined),2920 nM
5,O=C(c1ccoc1)N1CCN(c2cc(-c3ccccc3F)nc3cc(-c4ccccc4)nn23)CC1,3620 nM
6,Cc1cc(N2CCN(C(=O)c3ccco3)CC2)n2ncc(-c3ccccc3)c2n1,7520 nM
7,COc1cccc(-c2cc3nc(C)c(C)c(N4CCN(C(=O)c5ccco5)CC4)n3n2)c1,7100 nM
8,CC(=O)N1CCN(c2cc(C)nc3cc(-c4cccc(F)c4)nn23)CC1,inactive
9,COc1ccc(-c2cc3nc(C)c(C)c(N4CCN(C(C)=O)CC4)n3n2)cc1,6390 nM
10,COc1ccc(-c2cc3nc(C)c(C)c(N4CCN(C(=O)c5ccco5)CC4)n3n2)cc1,2680 nM
11,COc1ccc(-c2[nH]nc3nc(N4CCN(C(=O)c5ccoc5)CC4)cc(C(F)(F)F)c23)cc1,8440 nM
12,Cc1cc(N2CCN(C(=O)c3ccoc3)CC2)n2nc(-c3ccccc3)cc2n1,7190 nM
13,CC1CN(C(=O)OC(C)(C)C)CCN1c1cc(-c2ccco2)nc2cc(-c3ccccc3)nn12 (centres undefined),3440 nM
14,Cc1nc2cc(-c3cccc(Cl)c3)nn2c(N2CCN(C(=O)c3ccoc3)CC2)c1C,9310 nM
15,O=C(OCc1ccccc1)N1CCN(c2cc(-c3ccco3)nc3cc(-c4ccccc4)nn23)CC1,2730 nM
16,COc1cccc(-c2cc3nc(C)c(C(C)C)c(N4CCN(C(=O)c5ccoc5)CC4)n3n2)c1,6020 nM
17,Cc1cc(C(=O)N2CCN(c3cc(-c4ccco4)nc4cc(-c5ccccc5)nn34)CC2)c(C)o1,3810 nM
18,O=C(c1ccoc1)N1CCN(c2cc(-c3ccco3)nc3cc(-c4ccc(Cl)cc4)nn23)CC1,2720 nM
19,COc1ccc(-c2cc(N3CCN(C(=O)c4ccoc4)CC3)n3nc(-c4ccccc4)cc3n2)cc1,3640 nM
20,CC(=O)N1CCN(c2c(C)c(C)nc3cc(-c4ccc(F)cc4)nn23)CC1,inactive
21,O=C(c1ccco1)N1CCN(c2cc(-c3ccccc3)nc3ncnn23)CC1,3550 nM
22,COc1cccc(-c2cc3nc(C)cc(N4CCN(C(=O)c5ccoc5)CC4)n3n2)c1,4570 nM
23,CN(CCCN(C)c1cc(-c2ccco2)nc2cc(-c3ccccc3)nn12)C(=O)c1ccoc1,2720 nM
24,Cc1nc2cc(-c3ccc(Br)cc3)nn2c(N2CCN(C(=O)c3ccoc3)CC2)c1C,10100 nM

# Continued, values first:
row,EC50,Structure (SMILES)
1,1680 nM,COC(=O)c1cccc(-c2cc(N3CCN(C(=O)c4ccoc4)CC3)n3nc(-c4cccc(OC)c4)cc3n2)c1
2,503 nM,O=C(c1ccoc1)N1CCN(c2cc(-c3ccco3)nc3cc(-c4cccc(-c5ccco5)c4)nn23)CC1
3,892 nM,COc1cccc(-c2cc3nc(-c4ccco4)cc(N4CCN(C(C)=O)CC4)n3n2)c1
4,1030 nM,O=C(c1ccoc1)N1CCN(c2cc(-c3ccccc3)nc3cc(-c4ccncc4)nn23)CC1
5,852 nM,O=C(c1ccco1)N1CCN(c2cc(-c3ccco3)nc3cc(-c4ccccc4)nn23)CC1
6,664 nM,COc1cc(OC)cc(-c2cc3nc(C)c(C)c(N4CCN(C(=O)c5ccoc5)CC4)n3n2)c1
7,1670 nM,COc1cccc(-c2cc3nc(-c4ccccc4)c(C)c(N4CCN(C(=O)c5ccoc5)CC4)n3n2)c1
8,1200 nM,COc1ccc(-c2cc3nc(C)c(C)c(N4CCN(C(=O)c5ccoc5)CC4)n3n2)cc1
9,1450 nM,Cc1ccc(-c2cc(N3CCN(C(=O)c4ccoc4)CC3)n3nc(-c4ccccc4)cc3n2)o1
10,1220 nM,O=C(c1ccoc1)N1CCCN(c2cc(-c3ccco3)nc3cc(-c4ccccc4)nn23)C1
11,1590 nM,O=C(c1ccoc1)N1CCN(c2cc(-c3ccoc3)nc3cc(-c4ccccc4)nn23)CC1
12,1920 nM,COc1cccc(-c2cc3nc(-c4ccccc4)cc(N4CCN(C(=O)c5ccoc5)CC4)n3n2)c1
13,1680 nM,c1ccc(CN2CCN(c3cc(-c4ccco4)nc4cc(-c5ccccc5)nn34)CC2)cc1
14,460 nM,O=C(c1ccoc1)N1CCN(c2cc(-c3ccco3)nc3cc(-c4ccccc4)nn23)CC1
15,1860 nM,COc1cccc(-c2cc3nc(-c4ccco4)cc(N4CCN(C(=O)c5ccoc5)CC4)n3n2)c1
16,1450 nM,CCc1c(C)nc2cc(-c3cccc(OC)c3)nn2c1N1CCN(C(=O)c2ccoc2)CC1
17,1360 nM,O=C1CN(c2cc(-c3ccco3)nc3cc(-c4ccccc4)nn23)CCN1c1ccccc1
18,1430 nM,Cc1nc2cc(-c3cccc(F)c3)nn2c(N2CCN(C(=O)c3ccco3)CC2)c1C

row,EC50,Structure (SMILES)
1,1510 nM,O=C(c1ccccc1)N1CCN(c2cc(-c3ccco3)nc3cc(-c4ccccc4)nn23)CC1
2,540 nM,COc1cccc(-c2cc(N3CCN(C(=O)c4ccoc4)CC3)n3nc(-c4cccc(OC)c4)cc3n2)c1
3,1620 nM,COc1ccc(-c2cc3nc(-c4ccccc4)cc(N4CCN(C(=O)c5ccoc5)CC4)n3n2)cc1
4,1800 nM,COc1ccc(-c2cc3nc(-c4ccco4)cc(N4CCN(C(=O)c5ccoc5)CC4)n3n2)cc1
5,613 nM,Cc1nc2cc(-c3ccc4c(c3)OCO4)nn2c(N2CCN(C(=O)c3ccoc3)CC2)c1C
6,701 nM,O=C(c1ccco1)N1CCN(c2c3c(nc4cc(-c5ccc(F)cc5)nn24)CCC3)CC1
7,1820 nM,Cc1ccc(-c2cc3nc(-c4ccco4)cc(N4CCN(Cc5ccoc5)CC4)n3n2)cc1
8,393 nM,COc1cccc(-c2cc3nc(C)c(C)c(N4CCN(Cc5ccco5)CC4)n3n2)c1
9,788 nM,COc1cccc(-c2cc3nc(-c4cccc(C(F)(F)F)c4)cc(N4CCN(C(=O)c5ccoc5)CC4)n3n2)c1
10,1460 nM,O=C(c1coc2ccccc12)N1CCN(c2cc(-c3ccco3)nc3cc(-c4ccccc4)nn23)CC1
11,2000 nM,Cc1nc2cc(-c3ccccc3)nn2c(N2CCN(C(=O)c3ccoc3)CC2)c1C
12,1870 nM,COc1ccccc1-c1cc(N2CCN(C(=O)c3ccoc3)CC2)n2nc(-c3ccccc3)cc2n1
13,1690 nM,Cc1occc1C(=O)N1CCN(c2cc(-c3ccco3)nc3cc(-c4ccccc4)nn23)CC1
14,626 nM,CC(=O)N1CCN(c2cc(-c3ccco3)nc3cc(-c4cccc(Cl)c4)nn23)CC1
15,697 nM,O=C(c1ccoc1)N1CCN(c2cc(-c3ccco3)nc3cc(-c4ccco4)nn23)CC1
16,1660 nM,O=C(c1ccoc1)N1CCN(c2cc(-c3cccs3)nc3cc(-c4ccccc4)nn23)CC1
17,1920 nM,Cc1nn2c(N3CCN(C(=O)c4ccco4)CC3)cc(C(C)(C)C)nc2c1-c1ccc(Cl)cc1

# Same assay, conditions: JC-1 efflux, at 50 µM (top of the series)
row,inhibition,Structure (SMILES)
1,inactive,COc1ccccc1-c1c(C)nn2c(N3CCN(C(=O)c4ccco4)CC3)cc(C)nc12
